One assay addresses T1, IDH2 R140Q (Homo sapiens, UniProt P48735, R140Q).
T1 construct: expressed in transfected cells; host or cells: U-87 MG
T1 sequence (P48735 40-452 R140Q): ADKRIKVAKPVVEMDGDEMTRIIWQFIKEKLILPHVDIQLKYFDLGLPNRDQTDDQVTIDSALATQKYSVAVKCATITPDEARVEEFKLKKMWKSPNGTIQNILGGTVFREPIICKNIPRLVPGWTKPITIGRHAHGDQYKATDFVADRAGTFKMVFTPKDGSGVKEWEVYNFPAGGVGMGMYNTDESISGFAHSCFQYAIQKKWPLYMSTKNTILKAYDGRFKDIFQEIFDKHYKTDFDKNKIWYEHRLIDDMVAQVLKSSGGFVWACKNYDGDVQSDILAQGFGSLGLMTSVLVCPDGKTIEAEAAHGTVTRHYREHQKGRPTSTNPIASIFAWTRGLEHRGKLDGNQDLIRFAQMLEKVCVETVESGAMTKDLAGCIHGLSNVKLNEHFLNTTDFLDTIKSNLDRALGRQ
Nature of the assay: Inhibition of 2-HG production in IDH2 mutant U-87 MG cells. It is filed as cell-based.

The target in the next assay is T2, IDH2 R172K_Q316E cis (Homo sapiens, UniProt P48735, Q316E/R172K).
T2 construct: expressed in transfected cells; host or cells: U-87 MG
T2 sequence (P48735 40-452 R172K/Q316E): T1 sequence (P48735 40-452 R140Q) with Q101R, R133K, Q277E
Described as above. It is filed as cell-based. The note with it: 16 hours incubation, 50K cells/well, 100 μl media/well, read-out: Relative IC50 (nM) Mean, inhibition of 2-HG production.

SMILES strings stand for the structures. Residue numbers refer to the chain shown, from its start. Read-outs that look alike come from different tables or passages of the source.

As usually defined, the IC50 is the concentration at which inhibition is half-maximal.

With `C=CC(=O)N1CCN([C@@H](CC2CC2)c2ccc([C@H](C)Nc3ncc4c(n3)N(CC)C(=O)OC4)cc2)CC1` [Compound A, 7-[[(1S)-1-[4-[(1S)-2-cyclopropyl-1-(4-prop-2-enoylpiperazin-1-yl)ethyl]phenyl]ethyl]amino]-1-ethyl-4H-pyrimido[4,5-d][1,3]oxazin-2-one], the IC50 on IDH2 R140Q (16 hours incubation, 50K cells/well, 100 μl media/well, read-out: Relative IC50 (nM) Mean, inhibition of 2-HG production) is 223 nM; on IDH2 R140Q (72 hours incubation, 12.5K cells/well, 150 μl media/well, read-out: IC50, inhibition of 2-HG production), 28.4 nM; on IDH2 R172K_Q316E cis, 76 nM.

These data come from patent US20240261294A1, “METHOD FOR TREATING IDH INHIBITOR-RESISTANT SUBJECTS” (Eli Lilly and Company, priority 2021, published 2024).
